Measured values reported in PubChem BioAssay AID248 (DTP/NCI, 2004).
Values joined by “and” are separate entries in the source; they are usually repeats but may differ in a detail not shown here. Equal entries are not always repeated. Inconclusive results and toxic doses are left out. No stated cut-off is given here; in the data, active means T/C of 150% or more; inactive means T/C below 125%.

System: L1210 leukemia ip in BDF1 mice, survival T/C
Assay: NCI In Vivo Anticancer Drug Screen. Data for tumor model L1210 Leukemia (intraperitoneal) in B6D2F1 (BDF1) mice
Conditions: endpoint: mean survival time, higher = longer survival
How it was run: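 Ratio derived from survival: compound-dosed mice over vehicle-dosed mice, all bearing a transplantable tumor.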

[1] = dose: 50.0 mg/kg/injection, schedule: Q01DX001 (ip), vehicle: saline
[2] = dose: 100.0 mg/kg/injection, schedule: Q01DX001 (ip), vehicle: saline
[3] = dose: 200.0 mg/kg/injection, schedule: Q01DX001 (ip), vehicle: saline
[4] = dose: 400.0 mg/kg/injection, schedule: Q01DX001 (ip), vehicle: saline
[5] = dose: 100.0 mg/kg/injection, schedule: Q01DX009 (ip), vehicle: saline with Tween-80
[6] = dose: 200.0 mg/kg/injection, schedule: Q01DX009 (ip), vehicle: saline with Tween-80
[7] = dose: 400.0 mg/kg/injection, schedule: Q01DX009 (ip), vehicle: saline with Tween-80
[8] = dose: 50.0 mg/kg/injection, schedule: Q01DX009 (ip), vehicle: saline
[9] = dose: 100.0 mg/kg/injection, schedule: Q01DX001 (ip), vehicle: Klucel (hydroxypropylcellulose) (HPC)
[10] = dose: 100.0 mg/kg/injection, schedule: Q01DX009 (ip), vehicle: saline
[11] = dose: 200.0 mg/kg/injection, schedule: Q01DX001 (ip), vehicle: Klucel (hydroxypropylcellulose) (HPC)
[12] = dose: 100.0 mg/kg/injection, schedule: Q04DX003 (ip), vehicle: Klucel (hydroxypropylcellulose) (HPC)
[13] = dose: 400.0 mg/kg/injection, schedule: Q04DX003 (ip), vehicle: Klucel (hydroxypropylcellulose) (HPC)
[14] = dose: 50.0 mg/kg/injection, schedule: Q01DX001 (ip), vehicle: carboxymethylcellulose (CMC)
[15] = dose: 100.0 mg/kg/injection, schedule: Q01DX001 (ip), vehicle: carboxymethylcellulose (CMC)
[16] = dose: 200.0 mg/kg/injection, schedule: Q01DX001 (ip), vehicle: carboxymethylcellulose (CMC)
[17] = dose: 50.0 mg/kg/injection, schedule: Q01DX009 (ip), vehicle: saline with Tween-80
[18] = dose: 100.0 mg/kg/injection, schedule: Q04DX003 (ip), vehicle: saline
[19] = dose: 200.0 mg/kg/injection, schedule: Q04DX003 (ip), vehicle: saline
[20] = dose: 75.0 mg/kg/injection, schedule: Q01DX001 (ip), vehicle: other
[21] = dose: 150.0 mg/kg/injection, schedule: Q01DX001 (ip), vehicle: other
[22] = dose: 300.0 mg/kg/injection, schedule: Q01DX001 (ip), vehicle: other

Measured: T/C

Cc1ccc(S(=O)(=O)NC(=O)N2CCCC2)cc1
inactive: [1] 109 % of control | [2] 97 % of control | [3] 94 % of control | [4] 88 % of control

CCC(=O)C(CCCCCCOc1ccc(OC)cc1Cl)C(=O)CC
inactive: [5] 92 % of control | [6] 89 % of control | [7] 87 % of control

O=C(O)C1C(C(=O)O)C2(Cl)C(Cl)=C(Cl)C1(Cl)C2(Cl)Cl.[Co] (configuration not stated)
inactive: dose: 12.5 mg/kg/injection, schedule: Q01DX009 (ip), vehicle: saline 116 % of control | dose: 25.0 mg/kg/injection, schedule: Q01DX009 (ip), vehicle: saline sonified 112 % of control | dose: 25.0 mg/kg/injection, schedule: Q01DX009 (ip), vehicle: saline 110 % of control | dose: 33.0 mg/kg/injection, schedule: Q01DX009 (ip), vehicle: saline sonified 108 % of control | dose: 50.0 mg/kg/injection, schedule: Q01DX001 (ip), vehicle: Klucel (hydroxypropylcellulose) (HPC) 98 % of control | [8] 115 % of control | dose: 75.0 mg/kg/injection, schedule: Q01DX009 (ip), vehicle: saline sonified 112 % of control | [9] 110 % of control | [10] 124 % of control | [11] 106 % of control

O=C(C1=Cc2ccccc2OC1)N1CCN(c2ccccc2)CC1
inactive: dose: 100.0 mg/kg/injection, schedule: Q04DX003 (ip), vehicle: gum acacia 103 % of control | dose: 200.0 mg/kg/injection, schedule: Q04DX003 (ip), vehicle: gum acacia 95 % of control | dose: 400.0 mg/kg/injection, schedule: Q04DX003 (ip), vehicle: gum acacia 101 % of control

O=C(Oc1ccccc1I)c1cc(I)c(I)c(I)c1
inactive: [12] 92 % of control | [13] 94 % of control

C/C=C/C=C(\CC)C(=O)OCC
inactive: [8] 115 % of control | [5] 98 % of control | [10] 99 % of control | [6] 90 % of control | dose: 200.0 mg/kg/injection, schedule: Q01DX009 (ip), vehicle: saline 96 % of control | [7] 101 % of control

N#CSCC(=O)c1ccc(Cl)cc1
inactive: [14] 91 % of control | [15] 100 % of control | [16] 100 % of control

O=[N+]([O-])c1ccc2nc3c(nc2c1)-c1cccc2cccc-3c12
inactive: dose: 25.0 mg/kg/injection, schedule: Q01DX009 (ip), vehicle: saline with Tween-80 89 % of control | [17] 91 % of control | [5] 94 % of control | dose: 100.0 mg/kg/injection, schedule: Q04DX003 (ip), vehicle: saline with Tween-80 97 % of control | dose: 200.0 mg/kg/injection, schedule: Q04DX003 (ip), vehicle: saline with Tween-80 97 % of control | dose: 400.0 mg/kg/injection, schedule: Q04DX003 (ip), vehicle: saline with Tween-80 103 % of control

NC(N)=N/N=C(\C=C\c1ccccc1)C(=O)O
inactive: dose: 240.0 mg/kg/injection, schedule: Q01DX Z (ip), vehicle: methylcellulose (MC) 102 % of control | dose: 360.0 mg/kg/injection, schedule: Q01DX Z (ip), vehicle: methylcellulose (MC) 100 % of control | dose: 480.0 mg/kg/injection, schedule: Q01DX Z (ip), vehicle: methylcellulose (MC) 96 % of control

CC(C)(C)c1cc([N+](=O)[O-])cc(C(C)(C)C)c1O
inactive: [17] 102 % of control | [2] 96 % of control | [5] 98 % of control | [18] 101 % of control | [3] 94 % of control | [19] 93 % of control | [4] 93 % of control

C/[N+]([O-])=N\Nc1c(Br)cc(Br)cc1Br
inactive: [17] 105 % of control | [5] 102 % of control | [6] 105 % of control

NC(CO)CO
inactive: dose: 100.0 mg/kg/injection, schedule: Q04DX002 (ip), vehicle: saline 105 % of control | dose: 200.0 mg/kg/injection, schedule: Q04DX002 (ip), vehicle: saline 108 % of control | dose: 400.0 mg/kg/injection, schedule: Q04DX002 (ip), vehicle: saline 105 % of control

CCOCc1cc(Cc2cc(COCC)c3cccnc3c2O)c(O)c2ncccc12
inactive: dose: 75.0 mg/kg/injection, schedule: Q01DX001 (ip), vehicle: carboxymethylcellulose (CMC) 97 % of control | dose: 150.0 mg/kg/injection, schedule: Q01DX001 (ip), vehicle: carboxymethylcellulose (CMC) 105 % of control | dose: 300.0 mg/kg/injection, schedule: Q01DX001 (ip), vehicle: carboxymethylcellulose (CMC) 103 % of control

O=S(=O)(O)SCCN1CCCCCCC1
inactive: [10] 95 % of control

O=C1Cc2ccccc2/C=C\c2ccccc21
inactive: [9] 97 % of control | [12] 102 % of control | [11] 100 % of control | dose: 200.0 mg/kg/injection, schedule: Q04DX003 (ip), vehicle: Klucel (hydroxypropylcellulose) (HPC) 96 % of control | dose: 400.0 mg/kg/injection, schedule: Q01DX001 (ip), vehicle: Klucel (hydroxypropylcellulose) (HPC) 106 % of control | [13] 102 % of control

O=C1NC(CCCl)C(=O)NC1CCCl (configuration not stated)
inactive: [14] 107 % of control | [15] 101 % of control | [16] 91 % of control

O=C(N/N=C\c1ccc([N+](=O)[O-])cc1)c1ccccc1
inactive: [5] 97 % of control | [6] 94 % of control | [7] 93 % of control

S=P1(c2ccccc2)Nc2cc(Cl)ccc2S1 (configuration not stated)
inactive: [1] 105 % of control | [2] 106 % of control

OC(CI)C(O)CI (configuration not stated)
inactive: [20] 104 % of control | [21] 106 % of control and 86 % of control | [22] 101 % of control

Nc1ncnc2c1nnn2C1CC2COP(=O)(O)OC2C1O (configuration not stated)
inactive: dose: 44.0 mg/kg/injection, schedule: Q01DX007 (ip), vehicle: saline with Tween-80 103 % of control | dose: 67.0 mg/kg/injection, schedule: Q01DX007 (ip), vehicle: saline with Tween-80 114 % of control | dose: 100.0 mg/kg/injection, schedule: Q01DX007 (ip), vehicle: saline with Tween-80 101 % of control

O=C1C(Cl)=C(Nc2ccc(Cl)cc2)C(=O)c2ccccc21
inactive: [14] 95 % of control | [15] 89 % of control | [16] 98 % of control | dose: 400.0 mg/kg/injection, schedule: Q01DX001 (ip), vehicle: carboxymethylcellulose (CMC) 93 % of control

CC(=O)C1(O)CCC2C3CCC4=CC(=O)CCC4(C)C3CC(=O)C21C (configuration not stated)
inactive: [20] 95 % of control | [21] 93 % of control | [22] 95 % of control

COc1cc2c(cc1OC)-c1c([O-])c3cc(OC)c(OC)cc3n[n+]1CC2
inactive: dose: 75.0 mg/kg/injection, schedule: Q01DX001 (ip), vehicle: saline 98 % of control | dose: 150.0 mg/kg/injection, schedule: Q01DX001 (ip), vehicle: saline 86 % of control | dose: 300.0 mg/kg/injection, schedule: Q01DX001 (ip), vehicle: saline 89 % of control

O=[N+]([O-])/C=C\c1ccc(/C=C/[N+](=O)[O-])cc1
inactive: dose: 1.5 mg/kg/injection, schedule: Q01DX009 (ip), vehicle: other 95 % of control | dose: 1.5 mg/kg/injection, schedule: Q04DX003 (ip), vehicle: other 101 % of control | dose: 3.0 mg/kg/injection, schedule: Q01DX009 (ip), vehicle: other 93 % of control | dose: 3.0 mg/kg/injection, schedule: Q04DX003 (ip), vehicle: other 101 % of control | dose: 6.0 mg/kg/injection, schedule: Q04DX003 (ip), vehicle: other 98 % of control

C=C(C)C1CCC2(C=O)CCC3(C)C(CCC4C5(C)CCC(OC6CCCCO6)C(C)(C)C5CCC43C)C12 (configuration not stated)
inactive: dose: 25.0 mg/kg/injection, schedule: Q04DX002 (ip), vehicle: saline with Tween-80 90 % of control | dose: 100.0 mg/kg/injection, schedule: Q04DX002 (ip), vehicle: saline with Tween-80 90 % of control

CC1=C/C(=N\N2CCOCC2)C(C(O)(C(F)(F)F)C(F)(F)F)C(C)(C)C1 (configuration not stated)
inactive: [18] 98 % of control | [19] 98 % of control | dose: 400.0 mg/kg/injection, schedule: Q04DX003 (ip), vehicle: saline 96 % of control
